Measurements from patent US8664257B2, “Oxygen-substituted 3-heteroaroylamino-propionic acid derivatives and their use as pharmaceuticals” (Sanofi, priority 2010, dated 2014).

Each compound was assayed against T1, Recombinant human cathepsin A (Homo sapiens, UniProt P10619) (assay: Cathepsin A inhibitory activity). Conditions: read-out: Activity (2): Cathepsin A inhibitory activity (IC50 class).
T1 construct: Recombinant human cathepsin A (residues 29-480, with a C-terminal 10-His tag); 10-His (C); purchased R&D Systems 1049-SE
T1 sequence (P10619 29-312 limits assumed): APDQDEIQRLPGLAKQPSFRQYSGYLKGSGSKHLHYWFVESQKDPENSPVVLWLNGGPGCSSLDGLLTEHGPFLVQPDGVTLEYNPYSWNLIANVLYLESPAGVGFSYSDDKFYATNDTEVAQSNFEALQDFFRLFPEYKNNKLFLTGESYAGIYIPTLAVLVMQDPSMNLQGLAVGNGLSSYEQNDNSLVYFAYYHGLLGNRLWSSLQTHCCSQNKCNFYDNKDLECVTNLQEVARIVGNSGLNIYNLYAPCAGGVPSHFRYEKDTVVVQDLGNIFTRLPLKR
T1 sequence (P10619 327-480 limits assumed): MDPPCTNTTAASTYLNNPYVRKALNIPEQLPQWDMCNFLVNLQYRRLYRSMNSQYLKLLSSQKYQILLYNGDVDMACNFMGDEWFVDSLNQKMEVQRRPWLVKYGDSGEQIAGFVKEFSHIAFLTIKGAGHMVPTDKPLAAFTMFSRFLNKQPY
Assay type: biochemical
How it was run: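 Human cathepsin A (res. 29-480, C-His10) pre-activated with cathepsin L (MES pH 6.0, DTT, 15 min, 37 °C; quenched with 10 μM E-64). Enzyme (833 ng/ml) preincubated 15 min RT with compound in MES pH 5.5/DTT, then 2 μM Bodipy FL-bradykinin for 15 min RT. Capillary electrophoresis product/substrate peak areas; IC50 from % inhibition.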

Structure (SMILES)	IC50 [nM]
Cc1ccccc1[C@H](CC(=O)O)NC(=O)c1cc(OCC(O)C(C)(C)C)n(-c2ccccc2F)n1 (stereo partly drawn) [Example 744, (S)-3-{[1-(2-Fluoro-phenyl)-5-(2-hydroxy-3,3-dimethyl-butoxy)-1H-pyrazole-3-carbonyl]-amino}-3-o-tolyl-propionic acid]	< 100
Cc1ccccc1[C@H](CC(=O)O)NC(=O)c1cc(OC[C@@H](O)C(C)(C)C)n(-c2ccccc2F)n1 [Example 746, (S)-3-{[1-(2-Fluoro-phenyl)-5-((S)-2-hydroxy-3,3-dimethyl-butoxy)-1H-pyrazole-3-carbonyl]-amino}-3-o-tolyl-propionic acid]	< 100
Cc1ccccc1[C@H](CC(=O)O)NC(=O)c1cc(OCC(C)O)n(-c2ccccc2F)n1 (stereo partly shown) [Example 749]	< 100
CCC(C)(O)COc1cc(C(=O)N[C@@H](CC(=O)O)c2ccccc2C)nn1-c1ccccc1F (stereo partly shown) [Example 750]	< 100
CC(C)(O)COc1cc(C(=O)N[C@@H](CC(=O)O)c2ccc(Cl)cc2Cl)nn1-c1ccccc1F [Example 751, (S)-3-(2,4-Dichloro-phenyl)-3-{[1-(2-fluoro-phenyl)-5-(2-hydroxy-2-methyl-propoxy)-1H-pyrazole-3-carbonyl]-amino}-propionic acid]	< 100
Cc1ccccc1[C@H](CC(=O)O)NC(=O)c1cc(OCC(C)(C)O)n(-c2ccccc2F)n1 [Example 752]	< 100
CC(C)(C)[C@@H](O)COc1cc(C(=O)N[C@@H](CC(=O)O)c2ccc(Cl)cc2Cl)nn1-c1ccccc1F [Example 753, (S)-3-(2,4-Dichloro-phenyl)-3-{[1-(2-fluoro-phenyl)-5-((R)-2-hydroxy-3,3-dimethyl-butoxy)-1H-pyrazole-3-carbonyl]-amino}-propionic acid]	< 100
CC(C)(C)[C@H](O)COc1cc(C(=O)N[C@@H](CC(=O)O)c2ccc(Cl)cc2Cl)nn1-c1ccccc1F [Example 754, (S)-3-(2,4-Dichloro-phenyl)-3-{[1-(2-fluoro-phenyl)-5-((S)-2-hydroxy-3,3-dimethyl-butoxy)-1H-pyrazole-3-carbonyl]-amino}-propionic acid]	< 100
CCC(O)COc1cc(C(=O)N[C@@H](CC(=O)O)c2ccccc2C)nn1-c1ccccc1F (stereo partly shown) [Example 755]	< 100
CCC(O)(CC)COc1cc(C(=O)N[C@@H](CC(=O)O)c2ccccc2C)nn1-c1ccccc1F [Example 756]	< 100
Cc1ccccc1[C@H](CC(=O)O)NC(=O)c1cc(OCC(C)(O)C2CC2)n(-c2ccccc2F)n1 (stereo partly drawn) [Example 757, (S)-3-{[5-(2-Cyclopropyl-2-hydroxy-propoxy)-1-(2-fluoro-phenyl)-1H-pyrazole-3-carbonyl]-amino}-3-o-tolyl-propionic acid]	< 100
CCC(O)(CC)COc1cc(C(=O)N[C@@H](CC(=O)O)c2ccc(Cl)cc2Cl)nn1-c1ccccc1F [Example 762, (S)-3-(2,4-Dichloro-phenyl)-3-{[5-(2-ethyl-2-hydroxy-butoxy)-1-(2-fluoro-phenyl)-1H-pyrazole-3-carbonyl]-amino}-propionic acid]	< 100
Cc1ccccc1[C@H](CC(=O)O)NC(=O)c1cc(OC[C@](C)(O)C(C)C)n(-c2ccccc2F)n1 [Example 765, (S)-3-{[1-(2-Fluoro-phenyl)-5-((R)-2-hydroxy-2,3-dimethyl-butoxy)-1H-pyrazole-3-carbonyl]-amino}-3-o-tolyl-propionic acid]	< 100
Cc1ccc([C@H](CC(=O)O)NC(=O)c2cc(OC[C@@](C)(O)C(C)C)n(-c3ccccc3F)n2)cc1 [Example 766, (S)-3-{[1-(2-Fluoro-phenyl)-5-((S)-2-hydroxy-2,3-dimethyl-butoxy)-1H-pyrazole-3-carbonyl]-amino}-3-p-tolyl-propionic acid]	< 100
CC(C)[C@@](C)(O)COc1cc(C(=O)N[C@@H](CC(=O)O)c2cccc(Cl)c2)nn1-c1ccccc1F [Example 767]	< 100
CC(C)[C@@](C)(O)COc1cc(C(=O)N[C@@H](CC(=O)O)c2ccc(F)cc2)nn1-c1ccccc1F [Example 768, (S)-3-(4-Fluoro-phenyl)-3-{[1-(2-fluoro-phenyl)-5-((R)-2-hydroxy-2,3-dimethyl-butoxy)-1H-pyrazole-3-carbonyl]-amino}-propionic acid]	< 100
COc1cccc([C@H](CC(=O)O)NC(=O)c2cc(OC[C@@](C)(O)C(C)C)n(-c3ccccc3F)n2)c1OC [Example 769]	< 100
Cc1ccccc1[C@H](CC(=O)O)NC(=O)c1cc(OCC(C)(O)C(C)C)n(-c2ccccc2F)n1 (stereo partly drawn) [Example 770, (S)-3-{[1-(2-Fluoro-phenyl)-5-(2-hydroxy-2,3-dimethyl-butoxy)-1H-pyrazole-3-carbonyl]-amino}-3-o-tolyl-propionic acid]	< 100
CC(C)(C)[C@@](C)(O)COc1cc(C(=O)N[C@@H](CC(=O)O)c2ccc(F)cc2)nn1-c1ccccc1F [Example 771, (S)-3-(4-Fluoro-phenyl)-3-{[1-(2-fluoro-phenyl)-5-((R)-2-hydroxy-2,3,3-trimethyl-butoxy)-1H-pyrazole-3-carbonyl]-amino}-propionic acid]	< 100
Cc1ccc([C@H](CC(=O)O)NC(=O)c2cc(OC[C@@](C)(O)C(C)C)n(-c3ccccc3F)n2)c(C)c1 [Example 772, (S)-3-(2,4-Dimethyl-phenyl)-3-{[1-(2-fluoro-phenyl)-5-((S)-2-hydroxy-2,3-dimethyl-butoxy)-1H-pyrazole-3-carbonyl]-amino}-propionic acid]	< 100
CC(C)(C)[C@](C)(O)COc1cc(C(=O)NC(CC(=O)O)C2CCCCC2)nn1-c1ccccc1F (stereo partly drawn) [Example 773, 3-Cyclohexyl-3-{[1-(2-fluoro-phenyl)-5-((S)-2-hydroxy-2,3,3-trimethyl-butoxy)-1H-pyrazole-3-carbonyl]-amino}-propionic acid]	< 100
CC(C)(C)[C@@](C)(O)COc1cc(C(=O)N[C@@H](CC(=O)O)c2cccc(Cl)c2)nn1-c1ccccc1F [Example 774, (S)-3-(3-Chloro-phenyl)-3-{[1-(2-fluoro-phenyl)-5-((R)-2-hydroxy-2,3,3-trimethyl-butoxy)-1H-pyrazole-3-carbonyl]-amino}-propionic acid]	< 100
CC(C)C(C)(O)COc1cc(C(=O)N[C@@H](CC(=O)O)c2ccccc2Cl)nn1-c1ccccc1F (stereo partly drawn) [Example 775, (S)-3-(2-Chloro-phenyl)-3-{[1-(2-fluoro-phenyl)-5-(2-hydroxy-2,3-dimethyl-butoxy)-1H-pyrazole-3-carbonyl]-amino}-propionic acid]	< 100
CC(C)(C)[C@@H](O)COc1cc(C(=O)N[C@@H](CC(=O)O)c2cccc(Cl)c2Cl)nn1-c1ccccc1F [Example 776, (S)-3-(2,3-Dichloro-phenyl)-3-{[1-(2-fluoro-phenyl)-5-((R)-2-hydroxy-3,3-dimethyl-butoxy)-1H-pyrazole-3-carbonyl]-amino}-propionic acid]	< 100
CC(C)(C)C(=O)COc1cc(C(=O)N[C@@H](CC(=O)O)c2ccccc2Cl)nn1-c1ccccc1F [Example 777, (S)-3-(2-Chloro-phenyl)-3-{[5-(3,3-dimethyl-2-oxo-butoxy)-1-(2-fluoro-phenyl)-1H-pyrazole-3-carbonyl]-amino}-propionic acid]	< 100
CC(C)(C)[C@@](C)(O)COc1cc(C(=O)N[C@@H](CC(=O)O)c2cccc(C#N)c2)nn1-c1ccccc1F [Example 778, (S)-3-(3-Cyano-phenyl)-3-{[1-(2-fluoro-phenyl)-5-((R)-2-hydroxy-2,3,3-trimethyl-butoxy)-1H-pyrazole-3-carbonyl]-amino}-propionic acid]	< 100
CC(C)(C)[C@@](C)(O)COc1cc(C(=O)N[C@@H](CC(=O)O)c2cccc(F)c2)nn1-c1ccccc1F [Example 779, (S)-3-(3-Fluoro-phenyl)-3-{[1-(2-fluoro-phenyl)-5-((R)-2-hydroxy-2,3,3-trimethyl-butoxy)-1H-pyrazole-3-carbonyl]-amino}-propionic acid]	< 100
Cc1ccc([C@H](CC(=O)O)NC(=O)c2cc(OC[C@](C)(O)C(C)(C)C)n(-c3ccccc3F)n2)cc1 [Example 780, (S)-3-{[1-(2-Fluoro-phenyl)-5-((R)-2-hydroxy-2,3,3-trimethyl-butoxy)-1H-pyrazole-3-carbonyl]-amino}-3-p-tolyl-propionic acid]	< 100
Cc1ccc([C@H](CC(=O)O)NC(=O)c2cc(OC[C@@](C)(O)C(C)(C)C)n(-c3ccccc3F)n2)cc1 [Example 781, (S)-3-{[1-(2-Fluoro-phenyl)-5-((S)-2-hydroxy-2,3,3-trimethyl-butoxy)-1H-pyrazole-3-carbonyl]-amino}-3-p-tolyl-propionic acid]	< 100
CC(C)C(C)(O)COc1cc(C(=O)N[C@@H](CC(=O)O)c2cccc(F)c2)nn1-c1ccccc1F (stereo partly drawn) [Example 782, (S)-3-(3-Fluoro-phenyl)-3-{[1-(2-fluoro-phenyl)-5-(2-hydroxy-2,3-dimethyl-butoxy)-1H-pyrazole-3-carbonyl]-amino}-propionic acid]	< 100

Same assay, conditions: recombinant human cathepsin A 833 ng/ml, Bodipy FL-labeled bradykinin 2 μM, pH 5.5; read-out: CATH-A IC50

Structure (SMILES)	IC50 [nM]
CC(C)(C)[C@@H](O)COc1cc(C(=O)N[C@@H](CC(=O)O)c2ccc(Cl)cc2Cl)nn1-c1ccccc1F [Example 753, (S)-3-(2,4-Dichloro-phenyl)-3-{[1-(2-fluoro-phenyl)-5-((R)-2-hydroxy-3,3-dimethyl-butoxy)-1H-pyrazole-3-carbonyl]-amino}-propionic acid]	345
Cc1ccc([C@H](CC(=O)O)NC(=O)c2cc(OC[C@@](C)(O)C(C)C)n(-c3ccccc3F)n2)cc1 [Example 766, (S)-3-{[1-(2-Fluoro-phenyl)-5-((S)-2-hydroxy-2,3-dimethyl-butoxy)-1H-pyrazole-3-carbonyl]-amino}-3-p-tolyl-propionic acid]	0.692
CC(C)[C@@](C)(O)COc1cc(C(=O)N[C@@H](CC(=O)O)c2ccc(F)cc2)nn1-c1ccccc1F [Example 768, (S)-3-(4-Fluoro-phenyl)-3-{[1-(2-fluoro-phenyl)-5-((R)-2-hydroxy-2,3-dimethyl-butoxy)-1H-pyrazole-3-carbonyl]-amino}-propionic acid]	1.15
CC(C)(C)[C@@](C)(O)COc1cc(C(=O)N[C@@H](CC(=O)O)c2ccc(F)cc2)nn1-c1ccccc1F [Example 771, (S)-3-(4-Fluoro-phenyl)-3-{[1-(2-fluoro-phenyl)-5-((R)-2-hydroxy-2,3,3-trimethyl-butoxy)-1H-pyrazole-3-carbonyl]-amino}-propionic acid]	1.97
